Target: T1, Wrightia tinctoria 11S globulin (WTG) (Wrightia tinctoria, UniProt A0A162EGL7)
T1 construct: native purification from seeds; signal peptide (first 26 residues) removed; cleaved at Asn284-Gly285 into acidic and basic subunits joined by disulphide Cys120-Cys291; 18 C-terminal residues not seen; homohexamer
Experiment: X-ray crystal structure of complex ([…] Å); co-purified ligand identified by MALDI-MS and HRMS
Type: binding
Details: naturally bound ligand; three pockets at interface of four chains between two trimers; two alternate orientations, 0.5 occupancy; crystals at pH 8.5

T1 sequence (A0A162EGL7 entry or part of it): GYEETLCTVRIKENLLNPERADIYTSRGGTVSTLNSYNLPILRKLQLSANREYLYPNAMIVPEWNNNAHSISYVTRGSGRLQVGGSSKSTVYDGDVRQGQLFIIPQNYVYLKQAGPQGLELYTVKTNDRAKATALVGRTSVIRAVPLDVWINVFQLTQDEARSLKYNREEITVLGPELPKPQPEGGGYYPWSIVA
T1 sequence (A0A162EGL7 entry or part of it): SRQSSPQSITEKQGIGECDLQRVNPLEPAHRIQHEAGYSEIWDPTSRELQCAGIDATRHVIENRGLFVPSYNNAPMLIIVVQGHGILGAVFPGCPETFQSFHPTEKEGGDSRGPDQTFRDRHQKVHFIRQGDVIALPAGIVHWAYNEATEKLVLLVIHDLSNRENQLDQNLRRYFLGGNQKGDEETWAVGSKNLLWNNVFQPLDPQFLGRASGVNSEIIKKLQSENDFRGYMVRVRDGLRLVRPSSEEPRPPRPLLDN

O=C(O)Cc1c[nH]c2ccccc12 [Indole-3-acetic acid]
X-ray crystal structure of complex (1.7 Å); co-purified ligand identified by MAL: clearly revealed the presence of an IAA molecule in alternate orientation at the hydrophobic site
